In patent US7541467B2, “Fluorescent zinc ion sensor” (Sekisui Medical Co., Ltd., priority 2004, dated 2009):

Legend:
[1] = Titration with zinc ions monitored by ultraviolet and visible absorption spectra; assay type: binding
Experimental: TQEN was titrated with zinc ions, and changes of ultraviolet and visible absorption spectra were monitored.
In the same manner as in Test Example 3, solution of 6OMeTQEN (concentration of 6OMeTQEN: 34 μM) in water-containing DMF (DMF:water=1:1) was titrated with zinc ions (0 to 68 μM), and changes in absorption were monitored by measuring ultraviolet and visible absorption spectra (FIG. 8).

[2] = Fluorescence on irradiation with and without added zinc ions; assay type: physicochemical
[3] = Fluorescent responses in the presence of various metal ions
[4] = NMR titration

Row | absorption wavelength longer than that of TQEN by ([1]; 34 μM in DMF:water=1:1) | absorption wavelength extended to ([1]; 34 μM in DMF:water=1:1, zinc ions 0 to 68 μM) | fluorescence wavelength when zinc ions were added ([2]; excitation 340 nm, DMF:water=1:1, 34 μM, zinc ions 0 to 68 μM) [nm] | SMILES | melting point [°C] | fluorescence without zinc ions ([2]; irradiated with light of 340 nm, DMF:water=1:1, 34 μM) | fluorescence intensity in the presence of cadmium ions, relative to that in the presence of zinc ions [3] | exchange rate between free and zinc-bound ligand [4] | fluorescence wavelength when zinc ions were added ([2]; excitation 317 nm, DMF or DMF:water=1:1) [nm] | fluorescence without zinc ions ([2]; irradiated with light of 317 nm in DMF or DMF:water=1:1)
1 | about 20 nm | around 350 nm | 410 | COc1ccc2nc(CN(CCN(Cc3ccc4cc(OC)ccc4n3)Cc3ccc4cc(OC)ccc4n3)Cc3ccc4cc(OC)ccc4n3)ccc2c1 [6OMeTQEN, N,N,N′,N′-tetrakis(6-methoxy-2-quinolylmethyl)-ethylenediamine] | 168 to 170 | substantially no fluorescence was emitted |  |  |  | 
2 |  |  |  | c1ccc2nc(CN(CCN(Cc3ccc4ccccc4n3)Cc3ccc4ccccc4n3)Cc3ccc4ccccc4n3)ccc2c1 [TQEN, N,N,N′,N′-tetrakis(2-quinolylmethyl)ethylenediamine] | 196 to 198 |  | about 60% | slower than the time scale of NMR | 383 | substantially no fluorescence was emitted
